In patent publication US11840686B2, “Modulation of prekallikrein (PKK) expression” (Ionis Pharmaceuticals, Inc., priority 2013, dated 2023):
Strand notation (5' to 3'): a small letter for the sugar, then the base; units joined by * are phosphorothioate-linked, units joined directly phosphodiester-linked; [ ] holds rarer units or linkages, { } end groups; capitals alone tell only the bases. e = 2'-O-(2-methoxyethyl) (MOE); k = constrained ethyl (cEt); [5mC] = 5-methylcytosine; d = 2'-deoxy (DNA)

What was measured:
Format in all cases: cell-based
human PKK mRNA [1] = assay: Dose-dependent antisense inhibition of human PKK in HepaRG cells, 0.19-5.00 uM (Example 5)
Procedure: Cells were plated at a density of 20,000 cells per well and transfected using electroporation with 0.19 μM, 0.56 μM, 1.67 μM, and 5.00 μM concentrations of antisense oligonucleotide. After a treatment period of approximately 16 hours, RNA was isolated from the cells and PKK mRNA levels were measured by quantitative real-time PCR. Human PKK primer probe set RTS3454 was used to measure mRNA levels. PKK mRNA levels were adjusted according to total RNA content, as measured by RIBOGREEN®. The antisense oligonucleotides were tested in a series of experiments that had similar culture conditions.
The half maximal inhibitory concentration (IC50) of each oligonucleotide is also presented.

human PKK mRNA [2] = assay: Antisense inhibition of human PKK mRNA in HepaRG cells, 5,000 nM (Example 2); conditions: HepaRG cells, electroporation with 5,000 nM antisense oligonucleotide, approximately 24 hours, PKK mRNA by RT-PCR (RTS3454), relative to untreated control cells
Summary of the method: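 Percent inhibition of PKK mRNA is relative to untreated control, with qRT-PCR (probe set RTS3454) values adjusted to total RNA by RIBOGREEN. Oligonucleotides, fully phosphorothioate 2′-MOE gapmers, were delivered at 5,000 nM by electroporation into 20,000 HepaRG cells/well for about 24 h.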

human PKK mRNA [3] = assay: Antisense inhibition of human PKK mRNA in HepaRG cells, 1,000 nM, MOE/deoxy/cEt oligonucleotides (Example 3); conditions: PKK mRNA, HepaRG cells, 1,000 nM antisense oligonucleotide; Table 31
Summary of the method: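 Readout is percent PKK mRNA reduction against untreated controls, by real-time PCR (RTS3454) adjusted for total RNA via RIBOGREEN. Oligonucleotides, phosphorothioate gapmers of 16 nucleosides with cEt, MOE and deoxy sugars, were delivered at 1,000 nM by electroporation to 20,000 HepaRG cells/well for roughly 24 h.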

[4] = Table 34, HepaRG, electroporation, ~16 h
[5] = Table 34, PKK mRNA, HepaRG, electroporation, ~16 h
[6] = HepaRG cells, electroporation, approximately 16 hours, Table 35

Row | Substance | % inhibition (human PKK mRNA [3]) [%] | further results
1 | 546158 (e[5mC]*eT*eT*eG*eG*dG*dT*dG*dG*dA*dA*dT*dG*dT*dG*e[5mC]*eA*e[5mC]*e[5mC]*eT; antisense) [compound 546158] | – | percent inhibition of PKK at 0.19 μM (human PKK mRNA [1]; [4]): 5%; percent inhibition of PKK at 0.56 μM (human PKK mRNA [1]; [4]): 45%; percent inhibition of PKK at 1.67 μM (human PKK mRNA [1]; [4]): 79%; percent inhibition of PKK at 5.00 μM (human PKK mRNA [1]; [4]): 83%; IC50 (human PKK mRNA [1]; [5]): 700 nM; % inhibition (human PKK mRNA [2]; Table 5 experiment): 95%
2 | 546188 (antisense e[5mC]*eT*e[5mC]*e[5mC]*eT*dT*dT*dA*dT*dA*dA*dA*dT*dG*dT*e[5mC]*eT*e[5mC]*eG*eA) [compound 546188] | – | percent inhibition of PKK at 5.00 μM (human PKK mRNA [1]; HepaRG cells, electroporation, approximately 16 hours, Table 41): 97%; percent inhibition of PKK at 0.19 0μM (human PKK mRNA [1]; 0.19 0μM, HepaRG cells, electroporation, approximately 16 hours, Table 41): 27%; percent inhibition of PKK at 0.56 0μM (human PKK mRNA [1]; 0.56 0μM, HepaRG cells, electroporation, approximately 16 hours, Table 41): 69%; percent inhibition of PKK at 1.67 1μM (human PKK mRNA [1]; 1.67 1μM, HepaRG cells, electroporation, approximately 16 hours, Table 41): 88%; IC50 (human PKK mRNA [1]; 4 point dose response, HepaRG cells, Table 41): 400 nM; percent inhibition of PKK at 0.19 μM (human PKK mRNA [1]; [4]): 36%; percent inhibition of PKK at 0.56 μM (human PKK mRNA [1]; [4]): 55%; percent inhibition of PKK at 1.67 μM (human PKK mRNA [1]; [4]): 81%; percent inhibition of PKK at 5.00 μM (human PKK mRNA [1]; [4]): 83%; IC50 (human PKK mRNA [1]; [5]): 400 nM; % inhibition (human PKK mRNA [2]; Table 6 experiment): 95%
3 | 546190 (antisense e[5mC]*eT*e[5mC]*eT*e[5mC]*dA*dT*dA*dT*d[5mC]*dA*dA*d[5mC]*dT*d[5mC]*e[5mC]*eT*eT*eT*eA) [compound 546190] | – | percent inhibition of PKK at 0.19 μM (human PKK mRNA [1]; [6]): 33%; percent inhibition of PKK at 0.56 μM (human PKK mRNA [1]; [6]): 65%; percent inhibition of PKK at 1.67 μM (human PKK mRNA [1]; [6]): 86%; IC50 (human PKK mRNA [1]; 4 point dose response, HepaRG cells, Table 35): 400 nM; percent inhibition of PKK mRNA, 0.19 μM (human PKK mRNA [1]; HepaRG cells, 0.19 μM antisense oligonucleotide): 21%; percent inhibition of PKK mRNA, 0.56 μM (human PKK mRNA [1]; HepaRG cells, 0.56 μM antisense oligonucleotide): 34%; percent inhibition of PKK mRNA, 1.67 μM (human PKK mRNA [1]; HepaRG cells, 1.67 μM antisense oligonucleotide): 76%; percent inhibition of PKK mRNA, 5.00 μM (human PKK mRNA [1]; HepaRG cells, 5.00 μM antisense oligonucleotide): 98%; IC50 (human PKK mRNA [1]; HepaRG cells, 0.19-5.00 μM): 700 nM; % inhibition (human PKK mRNA [2]; Table 6 experiment): 92%
4 | 548658 (antisense eG*eA*kA*dG*dT*dT*d[5mC]*d[5mC]*dT*dG*dT*dG*dT*k[5mC]*kT*eT) [compound 548658] | 11 | –
5 | 548659 (antisense e[5mC]*e[5mC]*kA*dA*d[5mC]*d[5mC]*dT*d[5mC]*dT*dA*dA*dG*dG*k[5mC]*kT*eA) [compound 548659] | 17 | –
6 | 548660 (antisense eA*eT*kG*d[5mC]*dT*dT*dA*d[5mC]*d[5mC]*dT*dT*dT*d[5mC]*kT*k[5mC]*e[5mC]) [compound 548660] | 0 | –
7 | 548661 (antisense eA*e[5mC]*kG*dA*d[5mC]*d[5mC]*d[5mC]*dA*d[5mC]*dT*d[5mC]*d[5mC]*dA*kT*kG*eT) [compound 548661] | 18 | –
8 | 548662 (antisense eT*eG*k[5mC]*dT*dT*dA*dA*dA*dA*dG*dT*d[5mC]*dT*k[5mC]*k[5mC]*e[5mC]) [compound 548662] | 5 | –
9 | 548663 (antisense eG*e[5mC]*k[5mC]*d[5mC]*dT*dA*dG*dA*dA*dG*dG*dG*d[5mC]*k[5mC]*k[5mC]*eA) [compound 548663] | 20 | –
10 | 548664 (antisense eG*e[5mC]*kG*dG*dG*dT*dG*dG*dT*d[5mC]*dT*dT*dG*k[5mC]*kA*e[5mC]) [compound 548664] | 38 | –
11 | 548665 (antisense eG*e[5mC]*kT*d[5mC]*d[5mC]*d[5mC]*dG*dG*d[5mC]*d[5mC]*dA*dT*dT*kA*kG*e[5mC]) [compound 548665] | 8 | –
12 | 548666 (antisense eT*e[5mC]*kT*d[5mC]*d[5mC]*dA*dT*dA*dG*dT*dG*dA*dG*kA*k[5mC]*eG) [compound 548666] | 1 | –
13 | 548669 (antisense eA*eA*kT*dG*d[5mC]*dA*dG*dG*d[5mC]*d[5mC]*dA*dG*d[5mC]*kA*kT*e[5mC]) [compound 548669] | 42 | –
14 | 548670 (antisense eG*eA*kA*dA*dA*dG*d[5mC]*d[5mC]*d[5mC]*dT*d[5mC]*d[5mC]*dG*kA*kG*e[5mC]) [compound 548670] | 15 | –
15 | 548671 (antisense e[5mC]*eA*kA*d[5mC]*dA*dA*dT*d[5mC]*d[5mC]*dA*dA*dA*dG*k[5mC]*k[5mC]*eT) [compound 548671] | 3 | –
16 | 548672 (antisense e[5mC]*e[5mC]*k[5mC]*d[5mC]*d[5mC]*d[5mC]*dA*dG*dA*dA*dA*dT*d[5mC]*k[5mC]*k[5mC]*eA) [compound 548672] | 40 | –
17 | 548673 (antisense eG*eA*k[5mC]*d[5mC]*dT*dT*dG*d[5mC]*dT*dT*d[5mC]*d[5mC]*dA*kT*kG*eT) [compound 548673] | 40 | –

Row | Substance | % inhibition (human PKK mRNA [3]) [%] | further results
18 | 548674 (antisense eG*eA*kG*dA*dG*dA*d[5mC]*dG*dG*d[5mC]*dA*d[5mC]*d[5mC]*k[5mC]*kT*eG) [compound 548674] | 4 | –
19 | 548675 (antisense eG*eG*kG*dA*dA*dG*dG*dT*dA*dG*dT*dG*dT*kT*kA*e[5mC]) [compound 548675] | 8 | –
20 | 548676 (antisense eG*eT*kG*dA*dA*dT*d[5mC]*dA*dG*dA*dG*d[5mC]*dA*kG*kT*eG) [compound 548676] | 63 | –
21 | 548677 (antisense eT*e[5mC]*kA*d[5mC]*d[5mC]*dT*dG*dT*dG*dA*dG*dT*dA*kA*k[5mC]*e[5mC]) [compound 548677] | 40 | –
22 | 548678 (antisense eG*eA*kG*dT*dT*dA*d[5mC]*d[5mC]*dT*dT*dA*d[5mC]*dA*kA*kG*e[5mC]) [compound 548678] | 22 | –
23 | 548679 (antisense eT*e[5mC]*kT*d[5mC]*dA*dA*dG*d[5mC]*dA*dG*d[5mC]*d[5mC]*dT*kA*kT*eT) [compound 548679] | 0 | –
24 | 548680 (antisense eG*e[5mC]*k[5mC]*d[5mC]*d[5mC]*dT*d[5mC]*dT*dT*dA*dA*dA*dT*kA*kG*e[5mC]) [compound 548680] | 9 | –
25 | 548681 (antisense eG*eA*kT*dA*dT*d[5mC]*dA*dT*d[5mC]*dA*dT*d[5mC]*d[5mC]*k[5mC]*kA*eA) [compound 548681] | 22 | –
26 | 548682 (antisense eG*eT*kA*dT*d[5mC]*d[5mC]*d[5mC]*d[5mC]*dT*dT*dT*dT*d[5mC]*kT*kA*eT) [compound 548682] | 0 | –
27 | 548683 (antisense eA*eG*kT*dA*dT*d[5mC]*dT*d[5mC]*dA*dT*dG*dT*dG*k[5mC]*k[5mC]*eT) [compound 548683] | 46 | –
28 | 548684 (antisense e[5mC]*eA*kA*dG*dA*d[5mC]*d[5mC]*dT*dT*dG*d[5mC]*dT*dT*kG*k[5mC]*e[5mC]) [compound 548684] | 24 | –
29 | 548685 (antisense eT*eA*kG*dT*d[5mC]*d[5mC]*dA*d[5mC]*dT*dA*d[5mC]*dA*d[5mC]*kA*kG*e[5mC]) [compound 548685] | 24 | –
30 | 548686 (antisense eA*e[5mC]*kG*dA*d[5mC]*dA*dA*dT*dG*dG*dG*dA*dT*kT*k[5mC]*eA) [compound 548686] | 0 | –
31 | 548687 (antisense eG*eA*kA*dT*d[5mC]*dT*d[5mC]*d[5mC]*d[5mC]*dT*dG*dA*dG*kT*k[5mC]*eA) [compound 548687] | 20 | –
32 | 548688 (DNA eT*eA*kG*dA*dG*dG*dG*dA*dT*d[5mC]*d[5mC]*d[5mC]*dA*kG*kG*eA) [compound 548688] | 0 | –
33 | 548689 (DNA e[5mC]*e[5mC]*kA*dG*dG*dT*dG*d[5mC]*dA*dG*d[5mC]*dA*d[5mC]*kG*kG*eA) [compound 548689] | 12 | –
